{"source": "PubChem BioAssay AID1845217", "about": "(Molecular Pharmacology Branch, DTP, NCI, 2023)", "test_system": "VA-ES-BJ tumor spheroid viability", "assay": "Anticancer human tumor VA-ES-BJ cell line growth inhibition;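 for all read-outs here: spheroids exposed to compounds for seven days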;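 for viability, T/C: percent of DMSO vehicle control viability so 100% = untreated growth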", "settings": "spheroids with HUVEC and MSC; for viability, T/C: stronger effect = lower value", "method_in_brief": "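Single agents and combinations were tested on spheroids built from tumor cells plus HUVEC and hMSC, at half-log dilutions starting at or near clinical Cmax, else 10 microM; final DMSO 0.25% (v/v).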", "data": [{"smiles": "[2H]c1nc(C)nc([2H])c1-c1cc(NC[C@@H](C)c2cccc3c(C(=O)NC)ccnc23)ncn1", "note": "+ COc1cc2c(cc1O)CCNC21CSC2c3c(OC(C)=O)c(C)c4c(c3C(COC1=O)N1C(O)C3Cc5cc(C)c(OC)c(O)c5C(C21)N3C)OCO4", "values": [{"measurement": "IC50", "setting": "curve of first compound, second compound 30 pM", "value": "> 10", "unit": "µM"}, {"measurement": "IC50", "setting": "curve of first compound, second compound 94.9 pM", "value": "> 10", "unit": "µM"}, {"measurement": "IC50", "setting": "curve of first compound, second compound 0.0003 µM", "value": "< 0.0316", "unit": "µM"}, {"measurement": "IC50", "setting": "curve of first compound, second compound 0.000949 µM", "value": "< 0.0316", "unit": "µM"}, {"measurement": "IC50", "setting": "curve of first compound, second compound 0.003 µM", "value": "< 0.0316", "unit": "µM"}, {"measurement": "viability, T/C", "setting": "second compound 30 pM, first compound 0.0316 µM", "value": 75.6, "unit": "%"}, {"measurement": "viability, T/C", "setting": "second compound 30 pM, first compound 0.1 µM", "value": 78.4, "unit": "%"}, {"measurement": "viability, T/C", "setting": "second compound 30 pM, first compound 0.316 µM", "value": 81.4, "unit": "%"}, {"measurement": "viability, T/C", "setting": "second compound 30 pM, first compound 1 µM", "value": 81.9, "unit": "%"}, {"measurement": "viability, T/C", "setting": "second compound 30 pM, first compound 3.16 µM", "value": 85.2, "unit": "%"}, {"measurement": "viability, T/C", "setting": "second compound 30 pM, first compound 10 µM", "value": 87.5, "unit": "%"}, {"measurement": "viability, T/C", "setting": "second compound 94.9 pM, first compound 0.0316 µM", "value": 72.9, "unit": "%"}, {"measurement": "viability, T/C", "setting": "second compound 94.9 pM, first compound 0.1 µM", "value": 74, "unit": "%"}, {"measurement": "viability, T/C", "setting": "second compound 94.9 pM, first compound 0.316 µM", "value": 83.1, "unit": "%"}, {"measurement": "viability, T/C", "setting": "second compound 94.9 pM, first compound 1 µM", "value": 81, "unit": "%"}, {"measurement": "viability, T/C", "setting": "second compound 94.9 pM, first compound 3.16 µM", "value": 82.6, "unit": "%"}, {"measurement": "viability, T/C", "setting": "second compound 94.9 pM, first compound 10 µM", "value": 76.8, "unit": "%"}, {"measurement": "viability, T/C", "setting": "second compound 0.0003 µM, first compound 0.0316 µM", "value": 46.8, "unit": "%"}, {"measurement": "viability, T/C", "setting": "second compound 0.0003 µM, first compound 0.1 µM", "value": 40.9, "unit": "%"}, {"measurement": "viability, T/C", "setting": "second compound 0.0003 µM, first compound 0.316 µM", "value": 43.9, "unit": "%"}, {"measurement": "viability, T/C", "setting": "second compound 0.0003 µM, first compound 1 µM", "value": 42.1, "unit": "%"}, {"measurement": "viability, T/C", "setting": "second compound 0.0003 µM, first compound 3.16 µM", "value": 36, "unit": "%"}, {"measurement": "viability, T/C", "setting": "second compound 0.0003 µM, first compound 10 µM", "value": 38.4, "unit": "%"}, {"measurement": "viability, T/C", "setting": "second compound 0.000949 µM, first compound 0.0316 µM", "value": 3.46, "unit": "%"}, {"measurement": "viability, T/C", "setting": "second compound 0.000949 µM, first compound 0.1 µM", "value": 1.96, "unit": "%"}, {"measurement": "viability, T/C", "setting": "second compound 0.000949 µM, first compound 0.316 µM", "value": 3.4, "unit": "%"}, {"measurement": "viability, T/C", "setting": "second compound 0.000949 µM, first compound 1 µM", "value": 2.92, "unit": "%"}, {"measurement": "viability, T/C", "setting": "second compound 0.000949 µM, first compound 3.16 µM", "value": 2.41, "unit": "%"}, {"measurement": "viability, T/C", "setting": "second compound 0.000949 µM, first compound 10 µM", "value": 1.53, "unit": "%"}, {"measurement": "viability, T/C", "setting": "second compound 0.003 µM, first compound 0.0316 µM", "value": 0.81, "unit": "%"}, {"measurement": "viability, T/C", "setting": "second compound 0.003 µM, first compound 0.1 µM", "value": 0.92, "unit": "%"}, {"measurement": "viability, T/C", "setting": "second compound 0.003 µM, first compound 0.316 µM", "value": 0.98, "unit": "%"}, {"measurement": "viability, T/C", "setting": "second compound 0.003 µM, first compound 1 µM", "value": 1.25, "unit": "%"}, {"measurement": "viability, T/C", "setting": "second compound 0.003 µM, first compound 3.16 µM", "value": 1.28, "unit": "%"}, {"measurement": "viability, T/C", "setting": "second compound 0.003 µM, first compound 10 µM", "value": 2.09, "unit": "%"}]}, {"smiles": "CC[C@@]1(O)C(=O)OCc2c1cc1n(c2=O)Cc2cc3c(CN(C)C)c(O)ccc3nc2-1", "values": [{"measurement": "viability, T/C", "setting": "compound 0.003 µM", "value": "94% [middle of 10 runs]"}, {"measurement": "viability, T/C", "setting": "compound 0.0949 µM", "value": "7.65% [middle of 10 runs]"}, {"measurement": "viability, T/C", "setting": "compound 0.3 µM", "value": "5.65% [middle of 10 runs]"}, {"measurement": "IC50", "setting": "compound alone, run of 12/02/2019", "value": "21.8 nM [middle of 5 runs]"}, {"measurement": "IC50", "setting": "compound alone, run of 12/12/2019", "value": "28.5 nM [middle of 5 runs]"}]}, {"smiles": "[2H]c1nc(C)nc([2H])c1-c1cc(NC[C@@H](C)c2cccc3c(C(=O)NC)ccnc23)ncn1", "note": "+ Cn1nnc2c(C(N)=O)ncn2c1=O", "values": [{"measurement": "IC50", "setting": "curve of first compound, second compound 1 µM", "value": "> 10", "unit": "µM"}, {"measurement": "IC50", "setting": "curve of first compound, second compound 3.16 µM", "value": "> 10", "unit": "µM"}, {"measurement": "IC50", "setting": "curve of first compound, second compound 10 µM", "value": "> 10", "unit": "µM"}, {"measurement": "IC50", "setting": "curve of first compound, second compound 31.6 µM", "value": "> 10", "unit": "µM"}, {"measurement": "IC50", "setting": "curve of first compound, second compound 100 µM", "value": "> 10", "unit": "µM"}, {"measurement": "viability, T/C", "setting": "second compound 1 µM, first compound 0.0316 µM", "value": 108, "unit": "%"}, {"measurement": "viability, T/C", "setting": "second compound 1 µM, first compound 0.1 µM", "value": 105, "unit": "%"}, {"measurement": "viability, T/C", "setting": "second compound 1 µM, first compound 0.316 µM", "value": 106, "unit": "%"}, {"measurement": "viability, T/C", "setting": "second compound 1 µM, first compound 1 µM", "value": 94.7, "unit": "%"}, {"measurement": "viability, T/C", "setting": "second compound 1 µM, first compound 3.16 µM", "value": 95.8, "unit": "%"}, {"measurement": "viability, T/C", "setting": "second compound 1 µM, first compound 10 µM", "value": 92.5, "unit": "%"}, {"measurement": "viability, T/C", "setting": "second compound 3.16 µM, first compound 0.0316 µM", "value": 111, "unit": "%"}, {"measurement": "viability, T/C", "setting": "second compound 3.16 µM, first compound 0.1 µM", "value": 90.1, "unit": "%"}, {"measurement": "viability, T/C", "setting": "second compound 3.16 µM, first compound 0.316 µM", "value": 90.2, "unit": "%"}, {"measurement": "viability, T/C", "setting": "second compound 3.16 µM, first compound 1 µM", "value": 91.1, "unit": "%"}, {"measurement": "viability, T/C", "setting": "second compound 3.16 µM, first compound 3.16 µM", "value": 98.3, "unit": "%"}, {"measurement": "viability, T/C", "setting": "second compound 3.16 µM, first compound 10 µM", "value": 97, "unit": "%"}, {"measurement": "viability, T/C", "setting": "second compound 10 µM, first compound 0.0316 µM", "value": 111, "unit": "%"}, {"measurement": "viability, T/C", "setting": "second compound 10 µM, first compound 0.1 µM", "value": 94.6, "unit": "%"}, {"measurement": "viability, T/C", "setting": "second compound 10 µM, first compound 0.316 µM", "value": 97.5, "unit": "%"}, {"measurement": "viability, T/C", "setting": "second compound 10 µM, first compound 1 µM", "value": 101, "unit": "%"}, {"measurement": "viability, T/C", "setting": "second compound 10 µM, first compound 3.16 µM", "value": 94.1, "unit": "%"}, {"measurement": "viability, T/C", "setting": "second compound 10 µM, first compound 10 µM", "value": 95.6, "unit": "%"}, {"measurement": "viability, T/C", "setting": "second compound 31.6 µM, first compound 0.0316 µM", "value": 114, "unit": "%"}, {"measurement": "viability, T/C", "setting": "second compound 31.6 µM, first compound 0.1 µM", "value": 103, "unit": "%"}, {"measurement": "viability, T/C", "setting": "second compound 31.6 µM, first compound 0.316 µM", "value": 105, "unit": "%"}, {"measurement": "viability, T/C", "setting": "second compound 31.6 µM, first compound 1 µM", "value": 99.2, "unit": "%"}, {"measurement": "viability, T/C", "setting": "second compound 31.6 µM, first compound 3.16 µM", "value": 89.4, "unit": "%"}, {"measurement": "viability, T/C", "setting": "second compound 31.6 µM, first compound 10 µM", "value": 85.6, "unit": "%"}, {"measurement": "viability, T/C", "setting": "second compound 100 µM, first compound 0.0316 µM", "value": 103, "unit": "%"}, {"measurement": "viability, T/C", "setting": "second compound 100 µM, first compound 0.1 µM", "value": 102, "unit": "%"}, {"measurement": "viability, T/C", "setting": "second compound 100 µM, first compound 0.316 µM", "value": 107, "unit": "%"}, {"measurement": "viability, T/C", "setting": "second compound 100 µM, first compound 1 µM", "value": 104, "unit": "%"}, {"measurement": "viability, T/C", "setting": "second compound 100 µM, first compound 3.16 µM", "value": 99.9, "unit": "%"}, {"measurement": "viability, T/C", "setting": "second compound 100 µM, first compound 10 µM", "value": 96, "unit": "%"}]}]}
